# From patent US5650444A, “Substituted biphenyl derivatives” (American Home Products Corporation, priority 1995, dated 1997)
# System: PDE IV
# Assay: Test Procedure No. 2: functional inhibition of PDE IV (relaxation of guinea pig tracheal rings precontracted with carbachol)
# Format: cell-based, guinea pig (male Hartley)
# Settings: in presence of CI-930 (10 μM)
# Method: The following standard test is also employed to assess the abilities of compounds to inhibit PDE IV functionally. […]
# Tracheal relaxation resulting from the inhibition of PDE-IV or PDE-III was assessed by a method similar to that employed by Harris et al. (1989). […] The functional inhibition of PDE-IV or PDE-III was determined by adding a test compound to the tissue bath in cumulatively increasing concentrations and monitoring the degree of relaxation induced in the continued presence of CI-930 or rolipram (respectively). […] Percent relaxations produced by each concentration of test compound were calculated as a percentage relaxation of tension maintained in the presence of the preincubating PDE inhibitor, relative to the final resting tension determined at the end of each experiment. […]
smiles,measurement,value
"COC(=O)c1cccc(-c2ccc(OC)c(OC3CCCC3)c2)c1 [Example 18, 3'-Cyclopentyloxy-4'-methoxy-biphenyl-3-carboxylic acid methyl ester]",IC50,120 nM
